# Data: patent publication US20060069132A1, “Azolecarboxamide herbicides” (priority 2004, published 2006)
# Legend:
# Experiment in all cases: Test E pre-/postemergence herbicide test
# [1] = test system: Canada horseweed; format: in vivo, Erigeron Canadensis
# From the text: Seeds of plant species selected from bipinnate beggarticks (Bidens bipinnata L.), hairy beggarticks (Bidens radiata Thuill.), bermudagrass (Cynodon dactylon (L.) Pers.), Surinam grass (Urochloa decumbens (Staph) R. D. Webster, previously named Brachiaria decumbens Stapf), large crabgrass (Digitaria sanguinalis (L.) Scop.), green foxtail (Setaria viridis (L.) P. Beauv.), goosegrass (Eleusine indica (L.) Gaertn.), johnsongrass (Sorghum halepense (L.) Pers.), kochia (Kochia scoparia (L.) Schrad.), pitted morningglory (Ipomoea lacunosa L.), purple nutsedge (Cyperus rotundus L.), common ragweed (Ambrosia elatior L.), mustard (Brassica nigra (L.) W. D. J. Koch), guineagrass (Panicum maximum Jacq.), dallisgrass (Paspalum dilatatum Poir.), barnyardgrass (Echinochloa crus-galli (L). P. Beauv.), southern sandbur (Cenchrus echinatus L.), common sowthistle (Sonchus oleraceous L.), prickly sida (Sida spinosa L.), Italian ryegrass (Lolium multiflorum Lam.), common purslane (Portulaca oleracea L.), broadleaf signalgrass (Brachiaria platyphylla (Griseb.) Nash), common groundsel (Senecio vulgaris L.), common chickweed (Stellaria media (L.) Vill/Cyr.), tropical spiderwort (Commelina benghalensis L.), annual bluegrass (Poa annua L.), downy bromegrass (Bromus tectorum L.), itchgrass (Rottboellia cochinchinensis (L.) L.f.), quackgrass (Elytrigia repens (L.) Nevski), Canada horseweed (Erigeron Canadensis L.), field bindweed (Convolvulus arvensis L.), spotted spurge (Euphorbia maculata L.), common mallow (Malva sylvestris (=s silvestris) L.), and Russian thistle (Salsola kali L. ssp. Ruthenica (Iljin) Soo) were planted and treated preemergence with test chemicals formulated in a non-phytotoxic solvent mixture which included a surfactant.
# At the same time, plants selected from these weed species were treated with postemergence applications of some of the test chemicals formulated in the same manner. Plants ranged in height from 2 to 18 cm (1- to 4-leaf stage) for postemergence treatments. Treated plants and controls were maintained in a greenhouse for 12 to 14 days, after which time all species were compared to controls and visually evaluated. Plant response ratings, summarized in Table E, are based on a scale of 0 to 100 where 0 is no effect and 100 is complete control. A dash (-) response means no test result.
# [2] = test system: green foxtail; format: in vivo, Setaria viridis
# Summary of the method: (§1)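 Seeds were planted and treated preemergence with test chemicals in a non-phytotoxic solvent mixture containing surfactant; plants at 2 to 18 cm (1- to 4-leaf stage) received postemergence applications of the same formulation. After 12 to 14 days in a greenhouse, injury was visually rated against untreated controls on a 0 to 100 scale.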
# [3] = test system: guineagrass; format: in vivo, Panicum maximum
# Summary of the method: as §1
# [4] = test system: Italian ryegrass; format: in vivo, Lolium multiflorum
# Summary of the method: as §1
# [5] = test system: Surinam grass; format: in vivo, Urochloa decumbens
# Summary of the method: as §1
# [6] = test system: broadleaf signalgrass; format: in vivo, Brachiaria platyphylla
# Summary of the method: as §1
# [7] = test system: bermudagrass; format: in vivo, Cynodon dactylon
# Summary of the method: as §1
# [8] = test system: southern sandbur; format: in vivo, Cenchrus echinatus
# Summary of the method: as §1
# [9] = test system: dallisgrass; format: in vivo, Paspalum dilatatum
# Summary of the method: as §1
# [10] = test system: field bindweed; format: in vivo, Convolvulus arvensis
# Summary of the method: as §1
# [11] = Preemergence, 62 g ai/ha, scale 0 to 100
# [12] = Preemergence, 125 g ai/ha, scale 0 (no effect) to 100 (complete control)
# [13] = Preemergence, 250 g ai/ha, scale 0 (no effect) to 100 (complete control)
# [14] = Preemergence, 500 g ai/ha, scale 0 (no effect) to 100 (complete control)
# [15] = Postemergence, 250 g ai/ha, scale 0 to 100
# [16] = postemergence, 125 g ai/ha, scale 0 to 100
# [17] = postemergence, 62 g ai/ha, scale 0 to 100
# [18] = Preemergence, 125 g ai/ha, scale 0 to 100
# [19] = Postemergence, 500 g ai/ha, scale 0 to 100
smiles,measurement,setting,value
"CCNC(=O)c1ccc(F)c(NC(=O)c2cc(C(C)(C)C)nn2CC)c1 [Compound 2, 3-(1,1-dimethylethyl)-1-ethyl-N-[5-[(ethylamino)carbonyl]-2-fluorophenyl]-1H-pyrazole-5-carboxamide]","Plant response rating, Horseweed",[1]; [11],80
same,"Plant response rating, Horseweed",[1]; [12],100
same,"Plant response rating, Horseweed",[1]; [13],100
same,"Plant response rating, Horseweed",[1]; [14],100
same,"Plant response rating, Foxtail, Green",[2]; [15],95
same,"Plant response rating, Foxtail, Green",[2]; [11],40
same,"Plant response rating, Foxtail, Green",[2]; [12],80
same,"Plant response rating, Foxtail, Green",[2]; [13],100
same,"Plant response rating, Foxtail, Green",[2]; [14],100
same,"Plant response rating, Foxtail, Green",[2]; [16],90
same,"Plant response rating, Foxtail, Green",[2]; [17],60
same,"Plant response rating, Guineagrass",[3]; [15],95
same,"Plant response rating, Guineagrass",[3]; [11],70
same,"Plant response rating, Guineagrass",[3]; [12],80
same,"Plant response rating, Guineagrass",[3]; [13],100
same,"Plant response rating, Guineagrass",[3]; [14],100
same,"Plant response rating, Guineagrass",[3]; [16],75
same,"Plant response rating, Guineagrass",[3]; [17],30
same,"Plant response rating, Ryegrass, Italian",[4]; [15],98
same,"Plant response rating, Ryegrass, Italian",[4]; [11],60
same,"Plant response rating, Ryegrass, Italian",[4]; [12],80
same,"Plant response rating, Ryegrass, Italian",[4]; [13],95
same,"Plant response rating, Ryegrass, Italian",[4]; [14],95
same,"Plant response rating, Ryegrass, Italian",[4]; [16],90
same,"Plant response rating, Ryegrass, Italian",[4]; [17],80
same,"Plant response rating, Surinam Grass",[5]; [15],100
same,"Plant response rating, Surinam Grass",[5]; [11],60
same,"Plant response rating, Surinam Grass",[5]; [18],80
same,"Plant response rating, Surinam Grass",[5]; [13],80
same,"Plant response rating, Surinam Grass",[5]; [14],90
same,"Plant response rating, Surinam Grass",[5]; [16],90
same,"Plant response rating, Surinam Grass",[5]; [17],75
same,"Plant response rating, Signalgrass",[6]; [15],85
same,"Plant response rating, Signalgrass",[6]; [11],50
same,"Plant response rating, Signalgrass",[6]; [12],70
same,"Plant response rating, Signalgrass",[6]; [13],75
same,"Plant response rating, Signalgrass",[6]; [14],90
same,"Plant response rating, Signalgrass",[6]; [16],80
same,"Plant response rating, Signalgrass",[6]; [17],30
same,"Plant response rating, Bermudagrass",[7]; [15],90
same,"Plant response rating, Bermudagrass",[7]; [11],90
same,"Plant response rating, Bermudagrass",[7]; [12],95
same,"Plant response rating, Bermudagrass",[7]; [13],100
same,"Plant response rating, Bermudagrass",[7]; [14],100
same,"Plant response rating, Bermudagrass",[7]; [16],85
same,"Plant response rating, Bermudagrass",[7]; [17],20
same,"Plant response rating, Sandbur",[8]; [15],95
same,"Plant response rating, Sandbur",[8]; [11],60
same,"Plant response rating, Sandbur",[8]; [12],70
same,"Plant response rating, Sandbur",[8]; [13],80
same,"Plant response rating, Sandbur",[8]; [14],100
same,"Plant response rating, Sandbur",[8]; [16],75
same,"Plant response rating, Sandbur",[8]; [17],65
same,"Plant response rating, Dallisgrass",[9]; [15],90
same,"Plant response rating, Dallisgrass",[9]; [11],60
same,"Plant response rating, Dallisgrass",[9]; [12],90
same,"Plant response rating, Dallisgrass",[9]; [13],95
same,"Plant response rating, Dallisgrass",[9]; [14],95
same,"Plant response rating, Dallisgrass",[9]; [16],80
same,"Plant response rating, Dallisgrass",[9]; [17],75
same,"Plant response rating, Bindweed, Field",[10]; [15],70
same,"Plant response rating, Bindweed, Field",[10]; [11],10
same,"Plant response rating, Bindweed, Field",[10]; [13],70
same,"Plant response rating, Bindweed, Field",[10]; [14],80
same,"Plant response rating, Bindweed, Field",[10]; [16],70
same,"Plant response rating, Bindweed, Field",[10]; [17],50
"CCn1nc(C(C)(C)C)cc1C(=O)Nc1cccc(C(N)=O)n1 [Compound 162, 6-[[[3-(1,1-dimethylethyl)-1-ethyl-1H-pyrazol-5-yl]carbonyl]amino]-2-pyridinecarboxamide]","Plant response rating, Horseweed",[1]; [19],100
same,"Plant response rating, Horseweed",[1]; [15],100
same,"Plant response rating, Horseweed",[1]; [11],100
same,"Plant response rating, Horseweed",[1]; [18],100
same,"Plant response rating, Horseweed",[1]; [13],100
same,"Plant response rating, Horseweed",[1]; [14],100
same,"Plant response rating, Horseweed",[1]; [16],70
same,"Plant response rating, Horseweed",[1]; [17],70
same,"Plant response rating, Foxtail, Green",[2]; [19],95
same,"Plant response rating, Foxtail, Green",[2]; [15],85
same,"Plant response rating, Foxtail, Green",[2]; [11],30
same,"Plant response rating, Foxtail, Green",[2]; [18],85
same,"Plant response rating, Foxtail, Green",[2]; [13],100
same,"Plant response rating, Foxtail, Green",[2]; [14],100
same,"Plant response rating, Foxtail, Green",[2]; [16],50
same,"Plant response rating, Foxtail, Green",[2]; [17],30
same,"Plant response rating, Guineagrass",[3]; [19],98
same,"Plant response rating, Guineagrass",[3]; [15],90
same,"Plant response rating, Guineagrass",[3]; [11],50
same,"Plant response rating, Guineagrass",[3]; [18],100
same,"Plant response rating, Guineagrass",[3]; [13],100
same,"Plant response rating, Guineagrass",[3]; [14],100
same,"Plant response rating, Guineagrass",[3]; [16],75
same,"Plant response rating, Guineagrass",[3]; [17],35
same,"Plant response rating, Ryegrass, Italian",[4]; [19],100
same,"Plant response rating, Ryegrass, Italian",[4]; [15],98
same,"Plant response rating, Ryegrass, Italian",[4]; [11],50
same,"Plant response rating, Ryegrass, Italian",[4]; [18],95
same,"Plant response rating, Ryegrass, Italian",[4]; [13],95
same,"Plant response rating, Ryegrass, Italian",[4]; [14],95
same,"Plant response rating, Ryegrass, Italian",[4]; [16],95
same,"Plant response rating, Ryegrass, Italian",[4]; [17],50
same,"Plant response rating, Surinam Grass",[5]; [19],100
same,"Plant response rating, Surinam Grass",[5]; [15],98
same,"Plant response rating, Surinam Grass",[5]; [11],60
same,"Plant response rating, Surinam Grass",[5]; [18],75
same,"Plant response rating, Surinam Grass",[5]; [14],100
same,"Plant response rating, Surinam Grass",[5]; [16],90
same,"Plant response rating, Surinam Grass",[5]; [17],50
same,"Plant response rating, Signalgrass",[6]; [19],90
same,"Plant response rating, Signalgrass",[6]; [15],80
same,"Plant response rating, Signalgrass",[6]; [18],70
same,"Plant response rating, Signalgrass",[6]; [13],100
same,"Plant response rating, Signalgrass",[6]; [14],100
same,"Plant response rating, Signalgrass",[6]; [16],70
same,"Plant response rating, Signalgrass",[6]; [17],30
same,"Plant response rating, Bermudagrass",[7]; [19],80
same,"Plant response rating, Bermudagrass",[7]; [15],70
same,"Plant response rating, Bermudagrass",[7]; [11],70
same,"Plant response rating, Bermudagrass",[7]; [18],80
same,"Plant response rating, Bermudagrass",[7]; [13],90
same,"Plant response rating, Bermudagrass",[7]; [14],100
same,"Plant response rating, Bermudagrass",[7]; [16],30
same,"Plant response rating, Bermudagrass",[7]; [17],0
same,"Plant response rating, Sandbur",[8]; [19],90
same,"Plant response rating, Sandbur",[8]; [15],80
same,"Plant response rating, Sandbur",[8]; [11],20
same,"Plant response rating, Sandbur",[8]; [18],70
same,"Plant response rating, Sandbur",[8]; [13],80
same,"Plant response rating, Sandbur",[8]; [14],80
same,"Plant response rating, Sandbur",[8]; [16],50
same,"Plant response rating, Sandbur",[8]; [17],20
same,"Plant response rating, Dallisgrass",[9]; [19],85
same,"Plant response rating, Dallisgrass",[9]; [15],70
same,"Plant response rating, Dallisgrass",[9]; [11],70
same,"Plant response rating, Dallisgrass",[9]; [18],95
same,"Plant response rating, Dallisgrass",[9]; [13],95
same,"Plant response rating, Dallisgrass",[9]; [14],95
same,"Plant response rating, Dallisgrass",[9]; [16],40
same,"Plant response rating, Dallisgrass",[9]; [17],20
same,"Plant response rating, Bindweed, Field",[10]; [19],98
same,"Plant response rating, Bindweed, Field",[10]; [15],95
same,"Plant response rating, Bindweed, Field",[10]; [11],30
same,"Plant response rating, Bindweed, Field",[10]; [18],80
same,"Plant response rating, Bindweed, Field",[10]; [13],100
same,"Plant response rating, Bindweed, Field",[10]; [14],100
same,"Plant response rating, Bindweed, Field",[10]; [16],80
same,"Plant response rating, Bindweed, Field",[10]; [17],50
